Experimental data reported in paper PMC12595484, “Optimizing multifunctional fluorescent ligands for intracellular labeling” (Proceedings of the National Academy of Sciences of the …, 2025).
Like-named read-outs stand apart in the source and are kept apart here.

Experiment: Determination of logD7.4 (miniaturized shake flask, octanol–PBS)
Assay type: physicochemical
Description: Detailed descriptions of the materials and methods are provided in the supporting information. Multifunctional rhodamine–HaloTag ligands (13HTL–16HTL and 18HTL–20HTL) were synthesized using palladium-catalyzed cross-coupling reactions to install 3-carboxyazetidine moieties onto rhodamine scaffolds, followed by amide bond formation with biotin–PEG2–NH2, (S)-JQ1–PEG2–NH2, or (R)-JQ1–PEG2–NH2. Spectroscopic properties (λabs, λem, ε, and Φf) were determined in 10 mM HEPES, pH 7.3. The lactone–zwitterion equilibrium constants (KL–Z) were measured in 1:1 (v/v) dioxane–water mixtures. Octanol–water distribution coefficients (logD7.4) were determined by miniaturized shake-flask partitioning experiments using PBS (pH 7.4) and 1-octanol. Cell culture experiments employed HEK293T, U2OS, and Neuro2a cells transfected with HaloTag fusion constructs and labeled with ligands (100 nM to 1 μM, 0.5 to 2 h at 37 °C), followed by fluorescence microscopy using confocal or lattice light-sheet microscopy. Affinity purification studies utilized streptavidin magnetic beads to capture biotin-labeled HaloTag conjugates, with analysis by SDS-PAGE and in-gel fluorescence detection. […]
Reported values are averages of at least two measurements.
Determination of logD7.4. The log of distribution coefficients at pH 7.4 was determined in octanol–phosphate-buffered saline (PBS) using a miniaturized shake flask setup described previously.6, 7 Briefly, 150 mL each of octanol and PBS pH 7.4 were stirred vigorously for 12–16 h. The layers were allowed to stand for at least 24 h for phase separation. The separated layers were collected and served as PBS saturated with octanol (PBS*) and octanol saturated with PBS (octanol*). Stock solutions (1 mM or 5 mM) of ligands were prepared in DMSO and diluted in PBS* to obtain 1 μM or 10 μM (3–5 mL) of the standard (std). This standard was used to prepare appropriate dilutions using octanol*, in triplicate, in 2-mL glass vials. The leftover standard was used to determine the standard concentration (Cstd). The vials were vortexed for 1 min and shaken horizontally at 700 rpm for 2 h. The vials were then shaken upright at 150 rpm for 2 h to allow the phases to separate. The octanol* layer was pipetted out, and the PBS* layer was used for further analyses. The concentrations of ligands in the standard and PBS* (CPBS*) were determined via fluorescence measurements of 200 μL of PBS* or std in 96-well plates on the Cytation 5 Multimode Plate Reader (BioTek). For Si-rhodamine containing ligands, 2–20 μL of […]
trifluoroacetic acid was added to each well of the 96-well plate prior to the fluorescence measurements. Reported values are averages of at least two measurements. The logD7.4 was obtained as described previously using equation 2: logD = log *’(" × r − 1. +)*+∗ / (2) […]
where Cstd is the standard concentration in PBS, CPBS* is the concentration in PBS after partitioning, r is the dilution factor of the standard solution, VPBS* is the volume of PBS used in the partitioning, and Voctanol* is the volume of octanol used in the partitioning.
Plasmid construction for mitochondria imaging and affinity purification. HaloTag, amplified from the pHTC HaloTag CMV-neo Vector (Promega; G7711) and monomeric-superfolder green fluorescent protein (msGFP; lab stock), was fused to the mitochondrial targeting signal from OMP25,8 interspacing flexible GS(GSS)4 linkers between each domain by PCR Splicing by Overlap Extension (SOE). This construct was subcloned into hSynapsin promoter bearing a copy of FUGW.9 FUGW was a gift from David Baltimore (Addgene plasmid # 14883; RRID:
Addgene_14883).10 This construct was designated as pF(UG) hSyn HaloTag-TEV-4×GS-msGFP- […]
HEK293T cell culture. HEK293T cells (ATCC) were passaged before 80% confluency by trypsinization (Corning; 25-053-CI) and trituration. The cell suspension was then plated on glass coverslips (Warner instruments; 64-0734, CS-18R17) coated with poly-D-lysine (Thermofisher; […]

[1] = 1-octanol/PBS, octanol–PBS pH 7.4, miniaturized shake flask, read-out: logD7.4

SMILES | logD (pH 7.4) | logD [1]
C[Si]1(C)c2cc(N3CC(F)C3)ccc2C2(OC(=O)c3ccc(C(=O)NCCOCCOCCCCCCCl)cc32)c2ccc(N3CC(F)C3)cc21 [6HTL, JF635–HaloTag ligand, reference compound] | 3.82 | –
O=C(CCCCC1SCC2NC(=O)NC21)NCCOCCOCCNC(=O)C1C[N+](=c2ccc3c(-c4cc(C(=O)NCCOCCOCCCCCCCl)ccc4C(=O)[O-])c4ccc(N5CCC5)cc4oc-3c2)C1 (centres unmarked) [13HTL, biotin–JF549–HaloTag ligand] | – | 0.07
CC1(C)C2=CC(=[N+]3CC(C(=O)NCCOCCOCCNC(=O)CCCC[C@@H]4SC[C@@H]5NC(=O)N[C@@H]54)C3)C=CC2=C(c2cc(C(=O)NCCOCCOCCCCCCCl)ccc2C(=O)[O-])c2ccc(N3CCC3)cc21 (some centres unmarked) [14HTL, biotin–JF608–HaloTag ligand] | – | 2.63
C[Si]1(C)C2=CC(=[N+]3CC(C(=O)NCCOCCOCCNC(=O)CCCC[C@@H]4SC[C@@H]5NC(=O)N[C@@H]54)C3)C=CC2=C(c2cc(C(=O)NCCOCCOCCCCCCCl)ccc2C(=O)[O-])c2ccc(N3CCC3)cc21 (some centres unmarked) [15HTL, biotin–JF646–HaloTag ligand] | 3.06 | –
C[Si]1(C)C2=CC(=[N+]3CC(F)(C(=O)NCCOCCOCCNC(=O)CCCC[C@@H]4SC[C@@H]5NC(=O)N[C@@H]54)C3)C=CC2=C(c2cc(C(=O)NCCOCCOCCCCCCCl)ccc2C(=O)[O-])c2ccc(N3CC(F)C3)cc21 (some centres unmarked) [16HTL, biotin–JF635–HaloTag ligand] | 3.6 | –
